According to patent US8076297B2, “Pharmaceutical composition containing polypeptide fragments of serralysins” (Centro De Ingenieria Genetica Y Biotecnologia, priority 2004, dated 2011):

What follows are compounds tested on HEp-2 cells (assay: Anti-proliferative assay on HEp-2 cells, MTT method). Conditions: 3 μg/mL.
Assay type: cell-based, human
Description: For the characterization of the antiproliferative activity of MG2327 “in vitro” a panel of human cell lines was evaluated (table 1). A total of 2000 cells, except for PBMC (20000), were seeded in 96 wells culture wells, and different concentrations of MG2327 were added. After 72 hours, the number of survival cells was estimated by addition of MTT (Skehan, P., Storeng, R., Scudiero, D., Monks, A., Mcmahon, J., Vistica, D., Warren, J. T., Bokesch, H., Kenney, S. and BOYD, M. R. 1990. J Natl Cancer Inst. 82:1107). The soluble formazan products were detected at 540 nm in a multiscan plate reader.

Compound	proliferation [%]
N.N.[Cl][Pt][Cl] [Cisplatin, reference compound]	40
COc1cccc2c1C(=O)c1c(O)c3c(c(O)c1C2=O)C[C@@](O)(C(=O)CO)C[C@@H]3O[C@H]1C[C@H](N)[C@H](O)[C@H](C)O1 [DXR, Doxorubicine, reference compound]	40
CC(=O)O[C@H]1C(=O)[C@@]2(C)[C@H]([C@H](OC(=O)c3ccccc3)[C@]3(O)C[C@H](OC(=O)[C@H](O)[C@@H](NC(=O)c4ccccc4)c4ccccc4)C(C)=C1C3(C)C)[C@]1(OC(C)=O)CO[C@@H]1C[C@@H]2O [Taxol, reference compound]	40
CC[C@]1(O)C[C@H]2CN(CCc3c([nH]c4ccccc34)[C@@](C(=O)OC)(c3cc4c(cc3OC)N(C=O)[C@H]3[C@@](O)(C(=O)OC)[C@H](OC(C)=O)[C@]5(CC)C=CCN6CC[C@]43[C@@H]65)C2)C1 [Vincristine, reference compound]	40
CC[C@]1(O)C[C@@H]2CN(CCc3c([nH]c4ccccc34)[C@@](C(=O)OC)(c3cc4c(cc3OC)N(C)[C@H]3[C@@](O)(C(=O)OC)[C@H](OC(C)=O)[C@]5(CC)C=CCN6CC[C@]43[C@@H]65)C2)C1 [Vinvlastine, reference compound]	40

Same assay, conditions: same conditions as 3 μg/mL comparison

Compound	effect on proliferation
Nc1ccn([C@@H]2O[C@H](CO)[C@@H](O)[C@@H]2O)c(=O)n1 [Ara C, reference compound]	do not showed effect
O=P1(N(CCCl)CCCl)NCCCO1 (stereo not drawn) [Ciclophosfamide, reference compound]	do not showed effect
CN(Cc1cnc2nc(N)nc(N)c2n1)c1ccc(C(=O)N[C@@H](CCC(=O)O)C(=O)O)cc1 [Metotrexate, reference compound]	do not showed effect
Bleomicine [reference compound]	do not showed effect
